Measured values: PubChem BioAssay (NCI)
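Values below derive from 48-hour exposures of cells grown in 96-well plates, with endpoints linearly interpolated between the two concentrations bracketing the appropriate inhibition level. TGI: concentration producing complete growth inhibition.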

Assays:
Assay in all cases: NCI anticancer screen, dose series, 48 h
UACC-62 melanoma = system: UACC-62 melanoma
SNB-75 CNS = system: SNB-75 CNS
SK-MEL-5 melanoma = system: SK-MEL-5 melanoma
COLO 205 colon = system: COLO 205 colon
HL-60(TB) leukemia = system: HL-60(TB) leukemia
HS 578T breast = system: HS 578T breast
UO-31 renal = system: UO-31 renal
PC-3 prostate = system: PC-3 prostate
MDA-MB-231 breast = system: MDA-MB-231 breast
U251 CNS = system: U251 CNS
TK-10 renal = system: TK-10 renal
NCI-H460 lung = system: NCI-H460 lung
T-47D breast = system: T-47D breast
UACC-257 melanoma = system: UACC-257 melanoma
SF-268 CNS = system: SF-268 CNS
RXF 393 renal = system: RXF 393 renal
A549 NSCLC = system: A549 NSCLC
NCI-H226 lung = system: NCI-H226 lung
HCT-15 colon = system: HCT-15 colon
MDA-MB-435 = system: MDA-MB-435
CCRF-CEM leukemia = system: CCRF-CEM leukemia
K-562 leukemia = system: K-562 leukemia
HOP-92 NSCLC = system: HOP-92 NSCLC
SN12C renal = system: SN12C renal
BT-549 breast = system: BT-549 breast
HCT-116 colon = system: HCT-116 colon
ACHN renal = system: ACHN renal
SF-539 CNS = system: SF-539 CNS
NCI-H522 lung = system: NCI-H522 lung
OVCAR-3 ovarian = system: OVCAR-3 ovarian
IGROV1 ovarian = system: IGROV1 ovarian
HOP-62 NSCLC = system: HOP-62 NSCLC
EKVX NSCLC = system: EKVX NSCLC
KM12 colon = system: KM12 colon
SNB-19 CNS = system: SNB-19 CNS
NCI/ADR-RES ovarian = system: NCI/ADR-RES ovarian
A498 renal = system: A498 renal
SF-295 CNS = system: SF-295 CNS
786-0 renal = system: 786-0 renal
SK-MEL-2 melanoma = system: SK-MEL-2 melanoma
DU-145 prostate = system: DU-145 prostate
CAKI-1 renal = system: CAKI-1 renal
SW-620 colon = system: SW-620 colon
LOX IMVI melanoma = system: LOX IMVI melanoma
HCC-2998 colon = system: HCC-2998 colon
M14 melanoma = system: M14 melanoma
MDA-N = system: MDA-N
SK-OV-3 ovarian = system: SK-OV-3 ovarian
HT29 colon = system: HT29 colon
MCF7 breast = system: MCF7 breast
SK-MEL-28 melanoma = system: SK-MEL-28 melanoma
NCI-H23 lung = system: NCI-H23 lung
OVCAR-5 ovarian = system: OVCAR-5 ovarian
MOLT-4 leukemia = system: MOLT-4 leukemia
SR leukemia = system: SR leukemia
OVCAR-8 ovarian = system: OVCAR-8 ovarian

SMILES: O=C1C(Cl)=C(N2C(=O)CCC2=O)C(=O)c2ccccc21
- TGI (UACC-62 melanoma): > 100 µM
- TGI (SNB-75 CNS): > 100 µM
- TGI (SK-MEL-5 melanoma): 36.7 µM
- TGI (COLO 205 colon): 32.8 µM
- TGI (HL-60(TB) leukemia): 6.73 µM
- TGI (HS 578T breast): > 100 µM
- TGI (UO-31 renal): 34.4 µM
- TGI (PC-3 prostate): > 100 µM
- TGI (MDA-MB-231 breast): > 100 µM
- TGI (U251 CNS): 63.3 µM
- TGI (TK-10 renal): > 100 µM
- TGI (NCI-H460 lung): > 100 µM
- TGI (T-47D breast): > 100 µM
- TGI (UACC-257 melanoma): 57.5 µM
- TGI (SF-268 CNS): > 100 µM
- TGI (RXF 393 renal): 45.7 µM
- TGI (A549 NSCLC): > 100 µM
- TGI (NCI-H226 lung): > 100 µM
- TGI (HCT-15 colon): 27.2 µM
- TGI (MDA-MB-435): 44 µM
- TGI (CCRF-CEM leukemia): 21.8 µM
- TGI (K-562 leukemia): 17.1 µM
- TGI (HOP-92 NSCLC): 26.6 µM
- TGI (SN12C renal): 33.6 µM
- TGI (BT-549 breast): 37.3 µM
- TGI (HCT-116 colon): 49.7 µM
- TGI (ACHN renal): 29.1 µM
- TGI (SF-539 CNS): > 100 µM
- TGI (NCI-H522 lung): 59.6 µM
- TGI (OVCAR-3 ovarian): 34.3 µM
- TGI (IGROV1 ovarian): > 100 µM
- TGI (HOP-62 NSCLC): > 100 µM
- TGI (EKVX NSCLC): > 100 µM
- TGI (KM12 colon): > 100 µM
- TGI (SNB-19 CNS): > 100 µM
- TGI (NCI/ADR-RES ovarian): > 100 µM
- TGI (A498 renal): > 100 µM
- TGI (SF-295 CNS): > 100 µM
- TGI (786-0 renal): 37.9 µM
- TGI (SK-MEL-2 melanoma): > 100 µM
- TGI (DU-145 prostate): 95 µM
- TGI (CAKI-1 renal): 38.1 µM
- TGI (SW-620 colon): 56.9 µM
- TGI (LOX IMVI melanoma): 86.4 µM
- TGI (HCC-2998 colon): 60.3 µM
- TGI (M14 melanoma): > 100 µM
- TGI (MDA-N): 35 µM
- TGI (SK-OV-3 ovarian): > 100 µM
- TGI (HT29 colon): > 100 µM
- TGI (MCF7 breast): 33.7 µM
- TGI (SK-MEL-28 melanoma): 48 µM
- TGI (NCI-H23 lung): 79.8 µM
- TGI (OVCAR-5 ovarian): 49.7 µM
- TGI (MOLT-4 leukemia): > 100 µM
- TGI (SR leukemia): 82.5 µM
- TGI (OVCAR-8 ovarian): > 100 µM
